This assay addresses Beta-secretase 1 (Homo sapiens, UniProt P56817). Put plainly: Inhibition of human BACE1.

Sequence of Beta-secretase 1 (P56817 whole entry): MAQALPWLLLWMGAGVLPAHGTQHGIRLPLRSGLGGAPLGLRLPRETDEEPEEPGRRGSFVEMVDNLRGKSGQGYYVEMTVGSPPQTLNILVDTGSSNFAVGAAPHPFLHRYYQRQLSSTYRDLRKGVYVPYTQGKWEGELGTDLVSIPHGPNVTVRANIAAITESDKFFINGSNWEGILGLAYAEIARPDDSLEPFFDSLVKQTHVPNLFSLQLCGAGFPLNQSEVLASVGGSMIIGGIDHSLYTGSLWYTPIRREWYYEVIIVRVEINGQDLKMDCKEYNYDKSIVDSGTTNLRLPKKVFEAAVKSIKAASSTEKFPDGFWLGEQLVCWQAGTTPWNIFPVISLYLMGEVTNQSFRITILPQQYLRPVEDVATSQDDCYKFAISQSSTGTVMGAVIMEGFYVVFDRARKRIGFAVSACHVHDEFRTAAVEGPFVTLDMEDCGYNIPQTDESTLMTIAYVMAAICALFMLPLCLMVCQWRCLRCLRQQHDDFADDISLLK

The IC50 is the concentration that gives 50% inhibition. Low values mean higher potency, high ones lower potency. `NC1=NC(c2ccccc2)(C2CCCCC2)C(=O)N1CCCO` (centres undefined) gave an IC50 of 4.8 µM.

Take `CCN1C(=O)C(c2ccccc2)(c2ccccc2)N=C1N`: the IC50 was 8 µM. In the case of `CCc1cc(C2(c3cccc(-c4cncnc4)c3)N=C(N)N(C)C2=O)cc(CC)n1` (centres undefined) it was 0.03 µM; in that of `NC1=NC(c2ccccc2)(c2ccccc2)C(=O)N1`, 20 µM.

The record behind these values is ChEMBL document CHEMBL1649366, “Self-organizing molecular field analysis on human β-secretase nonpeptide inhibitors: 5, 5-disubstituted aminohydantoins” (Eur J Med Chem, 2011).
